Measurements: paper PMC7607171, “Optimized low‐dose combinatorial drug treatment boosts selectivity and efficacy of colorectal carcinoma treatment” (Molecular Oncology, 2020)

How the values were obtained:
DLD1 tumors = test: Subcutaneous xenograft tumor growth; type: in vivo, Swiss nu/nu mice
Protocol: All procedures including animal use were performed in accordance with the Institutional Ethical Committee of Animal Care in Geneva and the Swiss Cantonal Veterinary Office (Authorization number GE‐136‐19). Briefly, female and male Swiss nu/nu mice aged 6–8 weeks were obtained from Charles River (Écully, France). For subcutaneous xenografts mice were inoculated in the left flank with 5x10^6 DLD1 or SW620 cells suspended in 100 µL of cell culture medium, supplemented with 1% FBS.
Drugs were administered through oral gavage based on average body weight of the males (100 µL/mouse) and females (80 µL/mouse) at various concentrations, see Tables S10 and S11.
Solution A: step (1) 30% PEG 400 + 5% propylene glycol + 0.5% Tween 80 and (2) 64.5% sterile H2O. Solution B: step (1) 10% DMSO, (2) 30% PEG 300 + 5% Tween 80 and (3) 55% sterile H2O. […] FOLFOX was administered as 6 mg/kg oxaliplatin two hours before administration of 90 mg/kg leucovorin and 50 mg/kg (DLD1) or 25 mg/kg (SW620) 5‐fluorouracil at day 1 and a repeat of 5‐fluorouracil dosing on day 2.
The Bliss independence model can be used to evaluate the drug interaction potential of a drug mixture. […] The model is based on the probability theory and requires the drug activity of each drug at the selected dose to predict the inhibition rate (IR) at additive doses.

[1] = Pharmacokinetics, dried blood spot LC-MS/MS, mice with DLD1 tumors; type: in vivo; conditions: for Tmax / AUC(0-t) / Cmax: Swiss Nu/nu, mouse, whole blood (dried blood spot), po, regorafenib 15, erlotinib 12.5, selumetinib 5, vemurafenib 75 mg/kg; for AUC(0-t) / Cmax: whole blood, mean ± SD; for AUC(0-t): oral, read-out: AUC0-24h
Protocol: (§1) The pharmacokinetic (PK) study was performed using the dried blood spot method. Mice were treated with CTRL, ODCs, and corresponding monotherapies as described above. To determine the disposition in blood in the first 24h, blood samples (5 µL/mouse) were collected from the tail vein (n = 4 mice) at 2h, 4h, 8h, and 24h time points and transferred onto paper (a filter paper 903 protein saver card from Whatman (MA, USA)). A disk with the entire spot was punched from the paper card and transferred to the HPLC vial tube. Hundred µL of MeOH containing a mix of internal standards was added, and the tube was vortex‐mixed for about 1 min before injecting 10 µL into the LC‐MS/MS system. The LC‐MS/MS system consisted of an API 4,000 triple quadrupole mass spectrometer (AB sciex, Concord, ON, Canada) controlled by analyst 1.6.1 software. The mass spectrometer was operated in the multiple reaction monitoring (MRM) mode with positive electrospray ionization. The instrument was coupled with an Agilent series 1100 (Waldbronn, Germany) LC system. Chromatography was performed on a Phenomenex Kinetex C18 analytical column (50 mm x 2.1 mm, 2.6 um; Torrance, CA, USA). The flow rate was 0.5 mL/min using gradient elution conditions. The method was fully validated before application to this pharmacokinetic study.

[2] = Pharmacokinetics, dried blood spot LC-MS/MS, mice with SW620 tumors; type: in vivo; conditions: for Tmax / AUC(0-t) / Cmax: Swiss Nu/nu, mouse, whole blood (dried blood spot), po, regorafenib 30, vemurafenib 75, GDC-0994 10 mg/kg; for AUC(0-t) / Cmax: whole blood, mean ± SD; for AUC(0-t): oral, read-out: AUC0-24h
Protocol: as §1

[3] = Serum and intratumor drug concentration at experimental endpoint, DLD1 model; type: in vivo, mice; conditions: for concentration at 1 h / Kp at 1 h: Swiss Nu/nu, mouse, oral; for concentration at 1 h: 1h post-treatment at endpoint (day 15); for Kp at 1 h: tumor vs serum, read-out: ratio tumor vs serum; for Kp at 1 h / ratio ODC vs single drug: DLD1 model
Protocol: (§2) At the experimental endpoint, plasma and tumors were collected 1h post‐treatment and part of the tumor tissue was used to determine the intratumor drug concentrations. Plasma and tumor samples were analyzed using the same LC‐MS/MS method used for drug determination in DBS. Before analysis, tumor tissues were homogenized in a 1 mL mixture of water/acetonitrile (30/70). Hundred uL of homogenates were transferred into new tubes and 50 µL of acetonitrile, as well as 50 µL of a mix of internal standards in MeOH were added. Tubes were vortexed and centrifuged for 10 min at 9,000 rpm. The supernatant (100 µL) was evaporated under nitrogen and reconstituted in 100 µL of acetonitrile with 0.1% formic acid/water with 0.1% formic acid (30/70). 10 µL was then injected into the LC‐MS/MS system. Plasma samples were spotted onto the same paper used for whole blood analysis and were extracted and analyzed using the same methods as used for DBS.

[4] = Serum and intratumor drug concentration at experimental endpoint, SW620 model; type: in vivo, mice; conditions: for concentration at 1 h / Kp at 1 h: Swiss Nu/nu, mouse, oral; for concentration at 1 h: 1h post-treatment at endpoint (day 19); for Kp at 1 h: tumor vs serum, read-out: ratio tumor vs serum; for Kp at 1 h / ratio ODC vs single drug: SW620 model
Protocol: as §2

[5] = Clinical plasma pharmacokinetics in patients, plasma concentration limit calculation; type: in vivo; conditions: average plasma concentration calculated from AUC0-24h in patients
In short: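 Plasma concentration limit is the average concentration derived from patient AUC0–24h, using the recommended clinical dose for FDA-approved drugs or the maximum tolerated dose from early trials otherwise. Values reflect AUC data available at December 2017.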

[6] = vemurafenib 25 mg/kg, Exp 2, Day 14
[7] = vemurafenib 75 mg/kg b.i.d., Exp 3, Day 13
[8] = vemurafenib 75 mg/kg, Exp 2, Day 14
[9] = vemurafenib 75 mg/kg, Exp 5, Day 16
[10] = vemurafenib 75 mg/kg, Exp 7, Day 15
[11] = vemurafenib 150 mg/kg b.i.d., Exp 4, Day 16
[12] = given as part of DLD1-specific ODC
[13] = given as part of SW620-specific ODC

In the case of `CCCS(=O)(=O)Nc1ccc(F)c(C(=O)c2c[nH]c3ncc(-c4ccc(Cl)cc4)cc23)c1F` [vemurafenib], the “% CTRL (tumor volume)” value (DLD1 tumors; [6]) is reported as 80 33 19 % CTRL, the Volume (DLD1 tumors; [6]) is reported as 562 231 133 mm^3 and the “% CTRL (tumor volume)” value (DLD1 tumors; [7]) is reported as 113 88 39 % CTRL. For the same molecule, the Volume (DLD1 tumors; [7]) was 388 304 136 mm^3, the “% CTRL (tumor volume)” value (DLD1 tumors; [8]) was 87 46 23 % CTRL and the Volume (DLD1 tumors; [8]) was 612 319 160 mm^3. For the same molecule, the “% CTRL (tumor volume)” value (DLD1 tumors; [9]) was 94 31 14 % CTRL, the Volume (DLD1 tumors; [9]) was 600 200 89 mm^3 and the “% CTRL (tumor volume)” value (DLD1 tumors; [10]) was 123 69 24 % CTRL. For the same molecule, the Volume (DLD1 tumors; [10]) was 619 347 123 mm^3, the “% CTRL (tumor volume)” value (DLD1 tumors; [11]) was 105 64 28 % CTRL and the Volume (DLD1 tumors; [11]) was 587 354 159 mm^3. The Tmax [1, 12] was 4 h, the AUC(0-t) [1, 12] was 14400 ± 2740 ng·h/mL and the Cmax [1, 12] was 1050 ± 360 ng/mL. It also gave a Tmax ([1]; mono) of 2 h, an AUC(0-t) ([1]; mono) of 2180 ± 220 ng·h/mL and a Cmax ([1]; mono) of 270 ± 80 ng/mL. The “increase of AUC as part of the ODC vs single-drug treatment” value ([1]; mice with DLD1 tumors, AUC0-24h) was 6.6 x, the Tmax [2, 13] was 4 h and the AUC(0-t) [2, 13] was 48200 ± 5720 ng·h/mL. For the same molecule, the Cmax [2, 13] was 4710 ± 650 ng/mL, the Tmax ([2]; mono) was 2 h and the AUC(0-t) ([2]; mono) was 19400 ± 3250 ng·h/mL. For the same molecule, the Cmax ([2]; mono) was 2560 ± 640 ng/mL, the “increase of AUC as part of the ODC vs single-drug treatment” value ([2]; mice bearing SW620 tumors, AUC0-24h) was 2.5 x and the concentration at 1 h ([3]; serum, as part of ODC, regorafenib 15, erlotinib 12.5, selumetinib 5, vemurafenib 75 mg/kg, read-out: concentration serum) was 910 ± 380 ng/mL. It also gave a concentration at 1 h ([3]; serum, single drug, regorafenib 15, erlotinib 12.5, selumetinib 5, vemurafenib 75 mg/kg, read-out: concentration serum) of 620 ng/mL, a concentration at 1 h ([3]; tumor (DLD1), as part of ODC, DLD1 tumor, doses as E156, read-out: concentration tumor) of 1650 ± 1000 ng/g and a concentration at 1 h ([3]; tumor (DLD1), single drug, DLD1 tumor, doses as E156, read-out: concentration tumor) of 790 ng/g. For the same molecule, the Kp at 1 h ([3]; as part of ODC) was 1.81, the Kp at 1 h ([3]; single drug) was 1.28 and the “ratio ODC vs single drug” value ([3]; serum) was 1.48. The “ratio ODC vs single drug” value ([3]; tumor) was 2.09, the concentration at 1 h ([4]; serum, as part of ODC, regorafenib 30, selumetinib 0.2, vemurafenib 75, GDC-0994 10 mg/kg, read-out: concentration serum) was 1770 ± 770 ng/mL and the concentration at 1 h ([4]; serum, single drug, regorafenib 30, selumetinib 0.2, vemurafenib 75, GDC-0994 10 mg/kg, read-out: concentration serum) was 1960 ± 1050 ng/mL. It also gave a concentration at 1 h ([4]; tumor (SW620), as part of ODC, SW620 tumor, doses as E164, read-out: concentration tumor) of 890 ± 530 ng/g, a Kp at 1 h ([4]; as part of ODC) of 0.5 and a Kp at 1 h ([4]; single drug) of 0.48. For the same molecule, the “ratio ODC vs single drug” value ([4]; serum) was 0.90, the “ratio ODC vs single drug” value ([4]; tumor) was 0.95 and the “PCL (plasma concentration limit)” value [5] was 11.1 µM.
